Experimental data published in patent US20140336218A1, “ARFORMOTEROL AND TIOTROPIUM COMPOSITIONS AND METHODS FOR USE” (priority 2008, published 2014).

How the values were obtained:
[1] = tested on: COPD patients; assay: Spirometry (FEV1, FVC) in 2-week randomized, double dummy, parallel group clinical trial; assay type: in vivo, human; conditions: for Difference between combined therapy and mono-therapies in change in FEV1AUC0-24, LS mean / Difference between combined therapy and mono-therapies in change in trough FEV1, LS mean / Difference between combined therapy and mono-therapies in peak change in FEV1 over 12 hours, LS mean / Difference between combined therapy and mono-therapies in peak change in FVC over 12 hours, LS mean / Change in trough FEV1, mean (SD) / Difference between combined therapy and mono-therapies in trough FEV1, LS mean: week 2; for Change in trough FEV1, mean (SD): trough = 24 hour time point after morning dose; for mean improvement in peak FVC: from baseline after 2 weeks of treatment
Method: (§1) This was a 2-week, prospective, multi-center (34 sites), randomized, modified blind, double dummy, parallel group study designed to evaluate the efficacy and safety of the combination of arformoterol 15 μg BID and tiotropium 18 μg QD (dosed sequentially) versus the individual mono-therapies in the treatment of COPD patients. The study was conducted according to the principles established by the Declaration of Helsinki (see, e.g., World Medical Association Declaration of Helsinki. Recommendations guiding physicians in biomedical research involving human subjects. JAMA 1997; 277:925-926.). Appropriate Institutional Review boards approved the protocol and written informed consent was obtained from the patients.
All patients had non-asthmatic COPD (including emphysema and/or chronic bronchitis). […] They also were required to have a pre-bronchodilator baseline pulmonary function of FEV1>0.7 L, FEV1/FVC ratio of ≦70%, and FEV1≦65% predicted. Patients were excluded if they had life-threatening or unstable respiratory status within 30 days of the screening visit. Patients who changed their prescribed dose or type of COPD medication within 14 days prior to screening or who had ever used tiotropium bromide inhalation powder were excluded.
(§2) Eligible patients were randomized to receive one of three treatments for 14 days: nebulized arformoterol 15 μg (Brovana®, Sepracor Inc., Marlborough, Mass.) BID and placebo DPI QD, nebulized placebo BID and tiotropium 18 μg (Spriva® HandiHaler® Boehringer Ingelheim, Ridgefield, Conn.) DPI QD, or nebulized arformoterol 15 μg BID and tiotropium 18 μg DPI QD. The nebulized drug was administered first using the PARI LC Plus® nebulizer driven by the Duraneb 3000® compressor (Pari: Pari Respiratory Equipment Inc., Midlothian, Va.) at a flow rate of 3.3 L/minute followed (within 5 minutes) by the DPI administration (HandiHaler®). The tiotropium and placebo DPI capsules were identical in size and shape but differed in color.
At week 0 and week 2, medical event calendars and blood samples were collected and vital signs and heart measurements analyzed. At week 0, spirometry was performed pre-morning dose, immediately (within 5 minutes) and at 30 minutes, 1, 2, 4, 6, 8, 10, and 12 hours post-first dose. After the 12-hour pulmonary function test patients self-administered the evening dose of study medication. At week 2, serial spirometry was also performed as at week 0, as well as immediately (within 5 minutes) following the evening dose (administered 12 hours after the morning dose) and 12.5, 13, 14, 16, 23, and 24 hours post-morning dose. Inspiratory capacity was evaluated pre-dose and at 2 hours post-morning dose at week 0, and pre-dose and 2, 11, 14, and 24 hours post-morning dose at week 2. All inspiratory capacity measurements were the mean of acceptable inspiratory capacity maneuvers, two of which were reproducible. Prior to an inspiratory capacity maneuver a patient had to have a stable expiratory level for about 10 breaths. Once the stable level was achieved, at the end of exhalation of a normal breath the patient was asked to make a steady and full inhalation at normal inspiratory flow rates until the lungs were completely full, and then to exhale at a normal rate.
All pulmonary function values used were the highest among the three acceptable maneuvers. The Investigator ensured that all spirometry was performed in accordance with the American Thoracic Society/European Respiratory Society Standardisation of Spirometry guidelines (see, e.g., Miller M R, Hankinson J, Brusasco V, Burgos F, Casaburi R, Coates A, et al. Standardisation of spirometry. Eur Respir J 2005; 26:319-338; herein incorporated in its entirety by reference). Centralized over-reading of spirometry and inspiratory capacity pulmonary function measures were used for quality control.

[2] = tested on: COPD patients; assay: Adverse events in 2-week clinical trial; conditions: for Any adverse event, n (%) / COPD exacerbations / Discontinued due to adverse events, n (%) / Overall cardiovascular adverse events, n (%) / Serious adverse events, n (%): ITT, 2 weeks of treatment
Method: as §1, §2
Descriptive statistics were calculated by treatment for baseline characteristics and each efficacy parameter. Adverse events were summarized using counts and percentages. All adverse events were coded using MedDRA (Medical Dictionary for Regulatory Activities (see, e.g., MedDRA and MSSO. The medical dictionary for regulatory activities 2008). A COPD exacerbation was pre-defined as an increase in symptoms that necessitated any change in baseline medication other than bronchodilators (e.g. anti-inflammatory agents, antibiotics, supplemental oxygen therapy, etc.) or caused the patient to require additional medical attention (hospitalization, emergency room visit, etc.).

[3] = tested on: COPD patients; assay: Rescue medication (levalbuterol MDI) use in 2-week clinical trial; assay type: in vivo, human
Method: as §1
During the study period, the use of LABAs or long-or short-acting anticholinergic bronchodilators (except for the study medication) was prohibited. Use of oral and inhaled corticosteroids was allowed as long as patients were on a stable dosing regimen for at least 14 days prior to study entry that was maintained throughout the study. Patients were required to withhold oral corticosteroids for at least 24 hours prior to pulmonary function testing. Leukotriene modifiers and methylxanthines were not allowed for at least 7-days prior to study entry. Levalbuterol MDI (Xopenex® Sepracor Inc., Marlborough, Mass.) was supplied and used as-needed for rescue medications for acute bronchospasm and acute treatment of COPD symptoms throughout the trial. Patients were instructed to withhold the use of rescue medication for ≧6 hours prior to each clinic visit.
At the screening visit, baseline values were obtained for COPD symptoms, Modified Medical Research Council (MMRC) Dyspnea Scale, heart rate, vital signs, and pulmonary function tests. Medical event calendars and medication logs that were to be completed daily, and rescue medication were also dispensed. The medication logs were used to assess compliance by monitoring the number of UDV/DPI doses taken.
as §2

[4] = ITT, change from baseline at week 2
[5] = ITT, change from baseline at week 2, time normalized
[6] = ITT, combined therapy versus the mono-therapy
[7] = baseline percent predicted FEV1 <50%, combined versus the mono-therapy
[8] = baseline percent predicted FEV1 <50%, week 2 from study baseline
[9] = baseline percent predicted FEV1 <50%, week 2 from study baseline (pre-dose week 0)
[10] = baseline percent predicted FEV1 ≧50%, combined versus the mono-therapy
[11] = baseline percent predicted FEV1 ≧50%, week 2 from study baseline
[12] = baseline percent predicted FEV1 ≧50%, week 2 from study baseline (pre-dose week 0)
[13] = <50% percent predicted FEV1, changes in levalbuterol MDI use at week 2
[14] = ITT, week 2, change from baseline, levalbuterol rescue
[15] = ≧50% percent predicted FEV1, changes in levalbuterol MDI use at week 2

SMILES: COc1ccc(C[C@@H](C)NC[C@H](O)c2ccc(O)c(NC=O)c2)cc1 [Arformoterol]
- mean FEV1 improvement 2-hours after the evening dose ([1]; 2 hours after evening dose): ~182 mL
- mean FEV1 improvement 2-hours after the morning dose ([1]; 2 hours after morning dose): approximately 213 mL
- Peak Change in FEV1 over 12 hours, mean (SD) [1, 4]: 0.27 (0.21) L
- Peak change in FVC over 12 hours, mean (SD) [1, 4]: 0.48 (0.37) L
- Change in FEV1AUC0-24, mean (SD) [1, 5]: 0.10 (0.21) L
- Difference between combined therapy and mono-therapies in change in FEV1AUC0-24, LS mean [1, 6]: 0.12 L
- Difference between combined therapy and mono-therapies in change in trough FEV1, LS mean [1, 6]: 0.07 L
- Difference between combined therapy and mono-therapies in peak change in FEV1 over 12 hours, LS mean [1, 6]: 0.11 L
- Difference between combined therapy and mono-therapies in peak change in FVC over 12 hours, LS mean [1, 6]: 0.12 L
- Change in trough FEV1, mean (SD) ([1]; ITT): 0.09 (0.23) L
- Difference between combined therapy and mono-therapies in change in FEV1AUC0-24, LS mean [1, 7]: 0.11 L
- Difference between combined therapy and mono-therapies in peak change in FEV1 over 12 hours, LS mean [1, 7]: 0.11 L
- Difference between combined therapy and mono-therapies in peak change in FVC over 12 hours, LS mean [1, 7]: 0.15 L
- Difference between combined therapy and mono-therapies in trough FEV1, LS mean [1, 7]: 0.08 L
- Peak Change in FEV1 over 12 hours, mean (SD) [1, 8]: 0.31 (0.23) L
- Peak change in FVC over 12 hours, mean (SD) [1, 8]: 0.56 (0.41) L
- Trough FEV1 (change in FEV1 at 24 hours post-dose), mean (SD) [1, 8]: 0.13 (0.23) L
- Change in FEV1AUC0-24, mean (SD) [1, 9]: 0.15 (0.22) L
- Difference between combined therapy and mono-therapies in change in FEV1AUC0-24, LS mean [1, 10]: 0.14 L
- Difference between combined therapy and mono-therapies in peak change in FEV1 over 12 hours, LS mean [1, 10]: 0.10 L
- Difference between combined therapy and mono-therapies in peak change in FVC over 12 hours, LS mean [1, 10]: 0.08 L
- Difference between combined therapy and mono-therapies in trough FEV1, LS mean [1, 10]: 0.05 L
- Peak Change in FEV1 over 12 hours, mean (SD) [1, 11]: 0.22 (0.17) L
- Peak change in FVC over 12 hours, mean (SD) [1, 11]: 0.34 (0.25) L
- Trough FEV1 (change in FEV1 at 24 hours post-dose), mean (SD) [1, 11]: 0.02 (0.21) L
- Change in FEV1AUC0-24, mean (SD) [1, 12]: 0.03 (0.19) L
- mean improvement in peak FVC [1]: 48 mL
- LS mean (±SE) peak improvement in FEV1 from visit pre-dose [1]: 0.19 L
- Any adverse event, n (%) [2]: 19 (25.0) n (%)
- COPD exacerbations [2]: 3 (3.9) n (%)
- Discontinued due to adverse events, n (%) [2]: 2 (2.6) n (%)
- Overall cardiovascular adverse events, n (%) [2]: 2 (2.6) n (%)
- Serious adverse events, n (%) [2]: 1 (1.3) n (%)
- patients reporting a serious adverse event ([2]; small intestinal obstruction): one
- Number of actuations per day, mean (SD) [3, 13]: −2.1 (2.3) actuations per day
- Used levalbuterol, n (%) [3, 13]: 45 (95.7) n (%)
- Used levalbuterol, n (%) ([3]; ITT, week 2): 40 (52.6) n (%)
- Number of actuations per day, mean (SD) [3, 14]: −1.8 (2.2) actuations per day
- Number of days per week, mean (SD) [3, 14]: −2.1 (2.6) days per week
- Number of actuations per day, mean (SD) [3, 15]: −1.3 (2.0) actuations per day
- Used levalbuterol, n (%) [3, 15]: 26 (90)^ n (%)

SMILES: C[N+]1(C)[C@@H]2C[C@@H](OC(=O)C(O)(c3cccs3)c3cccs3)C[C@H]1[C@@H]1O[C@@H]12 [Tiotropium]
- Peak Change in FEV1 over 12 hours, mean (SD) [1, 4]: 0.27 (0.23) L
- Peak change in FVC over 12 hours, mean (SD) [1, 4]: 0.40 (0.34) L
- Change in FEV1AUC0-24, mean (SD) [1, 5]: 0.08 (0.20) L
- Difference between combined therapy and mono-therapies in change in FEV1AUC0-24, LS mean [1, 6]: 0.14 L
- Difference between combined therapy and mono-therapies in change in trough FEV1, LS mean [1, 6]: 0.07 L
- Difference between combined therapy and mono-therapies in peak change in FEV1 over 12 hours, LS mean [1, 6]: 0.11 L
- Difference between combined therapy and mono-therapies in peak change in FVC over 12 hours, LS mean [1, 6]: 0.20 L
- Change in trough FEV1, mean (SD) ([1]; ITT): 0.08 (0.21) L
- Difference between combined therapy and mono-therapies in change in FEV1AUC0-24, LS mean [1, 7]: 0.16 L
- Difference between combined therapy and mono-therapies in peak change in FEV1 over 12 hours, LS mean [1, 7]: 0.14 L
- Difference between combined therapy and mono-therapies in peak change in FVC over 12 hours, LS mean [1, 7]: 0.28 L
- Difference between combined therapy and mono-therapies in trough FEV1, LS mean [1, 7]: 0.10 L
- Peak Change in FEV1 over 12 hours, mean (SD) [1, 8]: 0.29 (0.26) L
- Peak change in FVC over 12 hours, mean (SD) [1, 8]: 0.43 (0.37) L
- Trough FEV1 (change in FEV1 at 24 hours post-dose), mean (SD) [1, 8]: 0.11 (0.22) L
- Change in FEV1AUC0-24, mean (SD) [1, 9]: 0.10 (0.22) L
- Difference between combined therapy and mono-therapies in change in FEV1AUC0-24, LS mean [1, 10]: 0.12 L
- Difference between combined therapy and mono-therapies in peak change in FEV1 over 12 hours, LS mean [1, 10]: 0.09 L
- Difference between combined therapy and mono-therapies in peak change in FVC over 12 hours, LS mean [1, 10]: 0.08 L
- Difference between combined therapy and mono-therapies in trough FEV1, LS mean [1, 10]: 0.04 L
- Peak Change in FEV1 over 12 hours, mean (SD) [1, 11]: 0.23 (0.16) L
- Peak change in FVC over 12 hours, mean (SD) [1, 11]: 0.34 (0.28) L
- Trough FEV1 (change in FEV1 at 24 hours post-dose), mean (SD) [1, 11]: 0.03 (0.17) L
- Change in FEV1AUC0-24, mean (SD) [1, 12]: 0.05 (0.14) L
- mean improvement in peak FVC [1]: 40 mL
- LS mean (±SE) peak improvement in FEV1 from visit pre-dose [1]: 0.19 L
- Any adverse event, n (%) [2]: 22 (27.5) n (%)
- COPD exacerbations [2]: 0 n (%)
- Discontinued due to adverse events, n (%) [2]: 1 (1.3) n (%)
- Overall cardiovascular adverse events, n (%) [2]: 1 (1.3) n (%)
- Serious adverse events, n (%) [2]: 0 n (%)
- Number of actuations per day, mean (SD) [3, 13]: −1.8 (3.3) actuations per day
- Used levalbuterol, n (%) [3, 13]: 48 (94.1) n (%)
- Used levalbuterol, n (%) ([3]; ITT, week 2): 38 (47.5) n (%)
- Number of actuations per day, mean (SD) [3, 14]: −1.8 (2.8) actuations per day
- Number of days per week, mean (SD) [3, 14]: −2.2 (2.7) days per week
- Number of actuations per day, mean (SD) [3, 15]: −1.9 (1.8) actuations per day
- Used levalbuterol, n (%) [3, 15]: 27 (96.4) n (%)
